According to PubChem BioAssay AID1963434 (Molecular Pharmacology Branch, DTP, NCI, 2024):

Test system: 755483-174-R-J1-PDC complex spheroid growth, percent test/control
Test: Anticancer human tumor 755483-174-R-J1-PDC patient-derived rhabdomyosarcoma cell line growth inhibition [Asc]
Settings: for IC50: curve of first compound; for viability, T/C: stronger effect = lower value; active = viability on the fitted dose curve at most 10% of control; inactive = the rest
Summary of the method: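 Tumor cells were grown as complex spheroids with human endothelial cells (HUVEC) and human mesenchymal stem cells as stroma. Agents were tested alone and in combination, in half-log steps down from the clinical Cmax, or from 10 microM where Cmax was unknown.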

[1] = second compound 0.01 µM, first compound 0.0316 µM
[2] = second compound 0.01 µM, first compound 0.1 µM
[3] = second compound 0.0316 µM, first compound 0.0316 µM
[4] = second compound 0.0316 µM, first compound 0.1 µM
[5] = second compound 0.1 µM, first compound 0.0316 µM
[6] = second compound 0.1 µM, first compound 0.1 µM
[7] = second compound 0.316 µM, first compound 0.0316 µM
[8] = second compound 0.316 µM, first compound 0.1 µM
[9] = second compound 1 µM, first compound 0.0316 µM
[10] = second compound 1 µM, first compound 0.1 µM
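Also: spheroids exposed to compounds for seven days before readout.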

Cn1ncnc1[C@H]1c2n[nH]c(=O)c3cc(F)cc(c23)N[C@@H]1c1ccc(F)cc1 + CNC(C)C(=O)NC1CN(S(=O)(=O)c2cccc(S(=O)(=O)N3CCC4CCC(C(=O)NC(c5ccccc5)c5ccccc5)N4C(=O)C(NC(=O)C(C)NC)C3)c2)CCC2CCC(C(=O)NC(c3ccccc3)c3ccccc3)N2C1=O
inactive: viability, T/C (second compound 0.01 µM, first compound 0.000316 µM) 39.3% | viability, T/C (second compound 0.01 µM, first compound 0.001 µM) 45.2% | viability, T/C (second compound 0.01 µM, first compound 0.00316 µM) 45.5% | viability, T/C (second compound 0.01 µM, first compound 0.01 µM) 30.9% | viability, T/C [1] 26.4% | viability, T/C [2] 18.1% | viability, T/C (second compound 0.0316 µM, first compound 0.000316 µM) 36.2% | viability, T/C (second compound 0.0316 µM, first compound 0.001 µM) 42.9% | viability, T/C (second compound 0.0316 µM, first compound 0.00316 µM) 33.4% | viability, T/C (second compound 0.0316 µM, first compound 0.01 µM) 16.2% | viability, T/C [3] 18.1% | viability, T/C [4] 12.7% | viability, T/C (second compound 0.1 µM, first compound 0.000316 µM) 26.2% | viability, T/C (second compound 0.1 µM, first compound 0.001 µM) 33.2% | viability, T/C (second compound 0.1 µM, first compound 0.00316 µM) 25.4% | viability, T/C (second compound 0.1 µM, first compound 0.01 µM) 14.4% | viability, T/C [5] 13.7% | viability, T/C (second compound 0.316 µM, first compound 0.000316 µM) 31.5% | viability, T/C (second compound 0.316 µM, first compound 0.001 µM) 23.6% | viability, T/C (second compound 0.316 µM, first compound 0.00316 µM) 17.2% | viability, T/C (second compound 0.316 µM, first compound 0.01 µM) 14.7% | viability, T/C (second compound 1 µM, first compound 0.000316 µM) 13.7% | viability, T/C (second compound 1 µM, first compound 0.001 µM) 19.7% | viability, T/C (second compound 1 µM, first compound 0.00316 µM) 9.69% | viability, T/C (second compound 1 µM, first compound 0.01 µM) 9.82%
< 0.316 nM: IC50 (second compound 0.01 µM) | IC50 (second compound 0.0316 µM) | IC50 (second compound 0.1 µM) | IC50 (second compound 0.316 µM) | IC50 (second compound 1 µM)
active: viability, T/C [6] 9.96% | viability, T/C [7] 6.84% | viability, T/C [8] 9.04% | viability, T/C [9] 9.01% | viability, T/C [10] 7.46%

C#Cc1c(F)ccc2cc(O)cc(-c3ncc4c(N5CC6CCC(C5)N6)nc(OCC56CCCN5CC(F)C6)nc4c3F)c12 (stereo not given) + CNC(C)C(=O)NC1CN(S(=O)(=O)c2cccc(S(=O)(=O)N3CCC4CCC(C(=O)NC(c5ccccc5)c5ccccc5)N4C(=O)C(NC(=O)C(C)NC)C3)c2)CCC2CCC(C(=O)NC(c3ccccc3)c3ccccc3)N2C1=O
< 31.6 nM: IC50 (second compound 0.01 µM) | IC50 (second compound 0.0316 µM) | IC50 (second compound 0.1 µM) | IC50 (second compound 0.316 µM) | IC50 (second compound 1 µM)
inactive: viability, T/C [1] 46.4% | viability, T/C [2] 44.1% | viability, T/C (second compound 0.01 µM, first compound 0.316 µM) 55.5% | viability, T/C (second compound 0.01 µM, first compound 1 µM) 54.6% | viability, T/C (second compound 0.01 µM, first compound 3.16 µM) 36.6% | viability, T/C [3] 33.2% | viability, T/C [4] 36% | viability, T/C (second compound 0.0316 µM, first compound 0.316 µM) 38.7% | viability, T/C (second compound 0.0316 µM, first compound 1 µM) 48.3% | viability, T/C (second compound 0.0316 µM, first compound 3.16 µM) 36.4% | viability, T/C [5] 35.9% | viability, T/C [6] 42.6% | viability, T/C (second compound 0.1 µM, first compound 0.316 µM) 54% | viability, T/C (second compound 0.1 µM, first compound 1 µM) 28.7% | viability, T/C (second compound 0.1 µM, first compound 3.16 µM) 24.8% | viability, T/C [7] 32.1% | viability, T/C [8] 33.9% | viability, T/C (second compound 0.316 µM, first compound 0.316 µM) 30.9% | viability, T/C (second compound 0.316 µM, first compound 1 µM) 34.9% | viability, T/C (second compound 0.316 µM, first compound 3.16 µM) 13.9% | viability, T/C [9] 17.1% | viability, T/C [10] 31.2% | viability, T/C (second compound 1 µM, first compound 0.316 µM) 31.7% | viability, T/C (second compound 1 µM, first compound 1 µM) 22.8% | viability, T/C (second compound 1 µM, first compound 3.16 µM) 10.5%
active: viability, T/C (second compound 0.01 µM, first compound 10 µM) 2.18% | viability, T/C (second compound 0.0316 µM, first compound 10 µM) 2.06% | viability, T/C (second compound 0.1 µM, first compound 10 µM) 1.01% | viability, T/C (second compound 0.316 µM, first compound 10 µM) 0.34% | viability, T/C (second compound 1 µM, first compound 10 µM) 0.34%
